# Measurements published in patent US20180296542A1, “IMINOSUGARS FOR IMPROVING BONE MINERAL DENSITY IN BONE DISEASE” (Saint Louis University, priority 2015, published 2018).
# Values joined by “and” are separate entries in the source; they are usually repeats but may differ in a detail not shown here. Identical values can stand only once. “Also recorded” adds a separate entry of the source.
# Columns and labels:
# [1] = test system: TNSALP-null (Akp2^−/−) mice (WT, Het, KO); test: X-Rays of femurs (Example 2); assay type: in vivo; details: 400 and 1200 mg/kg Miglustat, FIGS. 13A-13I
# Description: FIGS. 13A-13I are X-Rays of femurs from Wild-type mice administered PBS (WT-PBS; FIG. 13A), Heterozygous mice administered PBS (Het-PBS; FIG. 13B), Homozygous mice administered PBS (KO-PBS; FIG. 13C), Wild-type mice administered 400 mg/kg Miglustat (WT-400 mg/kg; FIG. 13D), Heterozygous mice administered 400 mg/kg Miglustat (Het-400 mg/kg; FIG. 13E), Homozygous mice administered 400 mg/kg Miglustat (KO-400 mg/kg; FIG. 13F), Wild-type mice administered 1200 mg/kg Miglustat (WT-1200 mg/kg; FIG. 13G), Heterozygous mice administered […] Miglustat (Het-1200 mg/kg; FIG. 13H), Homozygous mice administered […] Miglustat (KO-1200 mg/kg; FIG. 13I) showing increased bone at primary ossification centers (arrowheads).
# Full-body ventral and side-view x-rays were taken after euthanizing the mice. The left anatomical legs were dissected to obtain the femoral bones. Femurs were then frozen before being placed in 10% formalin the day prior to microCT scanning. […]
# Mice were obtained, bred and genotyped as described above. […] A total of 44 mice were analyzed (1 Akp2^−/− homozygous mouse was omitted in the PBS group). Mice were scanned using microCT and analyzed as described above. […]
# patients with Type 1 GD = details: cited from earlier work
# [2] = test system: TNSALP-null (Akp2^−/−) mice, in vivo model of infantile HPP (wild-type, heterozygous, homozygous); test: MicroCT bone mineral density of femur cortical bone after one month of Miglustat (Example 1); details: for Mean/Density [mg HA/ccm] of TV (Apparent) (BMD), individual mice: femur diaphysis cortical bone, one value per mouse
# Description: -null (Akp2^-/-) mice served as an in vivo model of infantile HPP to analyze the effects of Miglustat as a treatment for HPP through BMD measurements. […] Resembling patients with HPP, elevated substrate concentrations of PEA, PPi, and PLP were found in urine samples from knock-out mice. […] All experiments were conducted with the highest standards of humane animal care at Saint Louis University under an approved IACUC protocol. Mice were genotyped as wild-type, heterozygous, or homozygous through DNA extraction, polymerase chain reaction (PCR), and gel electrophoresis. After DNA was extracted from an ear tissue sample, PCR was used to generate copies of the DNA for gel electrophoresis (2% agarose and Tris-Acetate-EDTA (TAE) buffer). The following primers were used: [NT] ID NO:1), [NT] ID NO:2), [NT] ID NO:3, wild-type allele: 160 bp, mutant allele: 195 bp). At the age of one month, mice were administered 100 μL injections of phosphate-buffered saline (PBS) with 0 mg/kg, 400 mg/kg, or 1200 mg/kg of Miglustat (250 mg/mL) to the peritoneal cavity for gradual diffusion of the drug. Mice were massed each day to adjust Miglustat dosages to body weight. Intraperitoneal injections (IP) continued daily for one month before mice were euthanized with CO2 at the age of two months. Mice were on a Pyridoxine Supplement Diet (“Vitamin B6 Diet”) to prevent seizures. […] (Systems EngineeringTM) was provided every alternating day to prevent dehydration. Urine samples were collected once a week and blood samples were collected from cheek tissue at the beginning and end of treatment. Full-body ventral and side-view x-rays were taken after euthanizing the mice. The left anatomical legs were dissected to obtain the femoral bones. Femurs were then frozen before being placed in 10% formalin the day prior to microCT scanning. Four bones were inserted into a gel cast (2.5% agarose and TAE buffer) at a time and covered with 2.5% agarose and TAE buffer to create gel capsules that were placed in sample tubes (diameter: 11.5 mm, height: 75 mm) for microCT scanning Cortical bone scans (voxel size: 12 μm) were performed at the diaphysis (femoral shaft) using a SCANCO μCT 35 system (SCANCO Medical; Brü[…], Switzerland). MicroCT scans were analyzed using SCANCO Medical microCT software to produce three dimensional reconstructions of the bones and determine bone mineral density (BMD) as the mean/density [mg HA/ccm] of total volume (TV) (Apparent). The total length of each bone was measured as the distance from the greater trochanter to the distal end. Only the middle 20% of each femur was accounted for during cortical bone analysis. Statistical analysis included calculating the average mean/density [mg HA/ccm] of TV (Apparent) and standard error for each treatment group to determine the estimated standard deviation of the statistics. Standard deviation and standard error were not calculated for homozygous mice due to count values below three. Full-body ventral and side x-rays were taken and microCT scans were performed on the femurs of each mouse. The bone mineral densities of the femurs were recorded in units of hydroxyapatite density as the mean/density [mg HA/ccm] of TV (apparent). The average bone mineral densities (average mean/density [mg HA/ccm] of TV (apparent) were then calculated for each treatment group. Statistical analysis, including standard deviation and standard error, was only performed for the wild-types and heterozygotes due to insufficient data for the homozygous mice. A minimum of three mice were required for statistical analysis.
# [3] = homozygous mice, Miglustat 400 mg/kg
smiles,measurement,setting,value
"CCCCN1C[C@H](O)[C@@H](O)[C@H](O)[C@H]1CO [Miglustat, (2R,3R,4R,5S)-1-butyl-2-(hydroxymethyl)piperidine-3,4,5-triol]",Bone at primary ossification centers (X-Rays of femurs),[1],increased
same,BMD,patients with Type 1 GD,increased
same,Bone pain,patients with Type 1 GD,alleviated
same,Average BMD with Miglustat dosage versus PBS groups (in words),"[2]; across genotypes, except wild-type mice at 1200 mg/kg, one month of treatment, 1200 mg/kg",higher average BMDs; also recorded: BMD increased with Miglustat dosage; also recorded: higher average BMD values
same,Average BMD versus PBS heterozygotes (in words),"[2]; heterozygous mice, Miglustat 400 mg/kg",slight improvement; also recorded: higher average BMD value
same,"Mean/Density [mg HA/ccm] of TV (Apparent) (BMD), individual mice","[2]; heterozygous mice, Miglustat 400 mg/kg IP daily for one month",983.17 mg HA/ccm and 937.07 mg HA/ccm and 968.62 mg HA/ccm
same,Average Mean/Density [mg HA/ccm] of TV (Apparent) (average BMD),"[2]; heterozygous mice, Miglustat 400 mg/kg, n=3, ± standard error",962.95±13.61 mg HA/ccm and 962.95 mg HA/ccm
same,Average BMD versus PBS heterozygotes and PBS wild-types (in words),"[2]; heterozygous mice, Miglustat 1200 mg/kg",even greater improvement; also recorded: match or even surpass; also recorded: matched and surpassed
same,"Mean/Density [mg HA/ccm] of TV (Apparent) (BMD), individual mice","[2]; heterozygous mice, Miglustat 1200 mg/kg IP daily for one month",980.88 mg HA/ccm and 984.82 mg HA/ccm and 979.78 mg HA/ccm and 1006.65 mg HA/ccm
same,Average Mean/Density [mg HA/ccm] of TV (Apparent) (average BMD),"[2]; heterozygous mice, Miglustat 1200 mg/kg, n=4, ± standard error",988.03±6.30 mg HA/ccm and 988.03 mg HA/ccm
same,Differences in mineralization in microCT scans between treatments,"[2]; heterozygous mice, PBS vs 400 vs 1200 mg/kg Miglustat",not discernable
same,"Mean/Density [mg HA/ccm] of TV (Apparent) (BMD), individual mice","[2]; homozygous (Akp2^−/−) mice, Miglustat 400 mg/kg IP daily for one month",881.08 mg HA/ccm and 1054.98 mg HA/ccm
same,Average Mean/Density [mg HA/ccm] of TV (Apparent) (average BMD),"[2]; homozygous (Akp2^−/−) mice, Miglustat 400 mg/kg, n=2",968.03 mg HA/ccm
same,Average BMD versus knockouts on PBS (in words),[2]; [3],substantial difference; also recorded: higher average BMD
same,Cortical bone mineralization at the diaphysis in microCT scans,[2]; [3],improper cortical bone mineralization
same,Average BMD versus other treatment groups (in words),"[2]; wild-type mice, Miglustat 400 mg/kg",greater; also recorded: increased; also recorded: highest average BMD
same,"Mean/Density [mg HA/ccm] of TV (Apparent) (BMD), individual mice","[2]; wild-type mice, Miglustat 400 mg/kg IP daily for one month",1000.00 mg HA/ccm and 990.58 mg HA/ccm and 991.31 mg HA/ccm and 1004.30 mg HA/ccm and 995.88 mg HA/ccm
same,Average Mean/Density [mg HA/ccm] of TV (Apparent) (average BMD),"[2]; wild-type mice, Miglustat 400 mg/kg, n=5, ± standard error",996.41±2.60 mg HA/ccm and 996.41 mg HA/ccm
same,Average BMD versus PBS wild-type group (in words),"[2]; wild-type mice, Miglustat 1200 mg/kg",no change
same,"Mean/Density [mg HA/ccm] of TV (Apparent) (BMD), individual mice","[2]; wild-type mice, Miglustat 1200 mg/kg IP daily for one month",973.20 mg HA/ccm and 985.09 mg HA/ccm and 969.63 mg HA/ccm and 967.00 mg HA/ccm
same,Average Mean/Density [mg HA/ccm] of TV (Apparent) (average BMD),"[2]; wild-type mice, Miglustat 1200 mg/kg, n=4, ± standard error",974.48±3.63 mg HA/ccm and 974.48 mg HA/ccm
